Assays:
[1] = biological target: T1, androgen receptor (AR) (Mus musculus, UniProt P19091); assay: Anti-androgenic (AR antagonistic) activity, PRE-tk-luciferase reporter in L929 cells co-treated with DHT; format: cell-based; details: co-treated with 3 nM DHT
T1 construct: the L929 cells which express the AR but not the PR; endogenous in cells; host or cells: L929 cells
T1 sequence (P19091 1-899): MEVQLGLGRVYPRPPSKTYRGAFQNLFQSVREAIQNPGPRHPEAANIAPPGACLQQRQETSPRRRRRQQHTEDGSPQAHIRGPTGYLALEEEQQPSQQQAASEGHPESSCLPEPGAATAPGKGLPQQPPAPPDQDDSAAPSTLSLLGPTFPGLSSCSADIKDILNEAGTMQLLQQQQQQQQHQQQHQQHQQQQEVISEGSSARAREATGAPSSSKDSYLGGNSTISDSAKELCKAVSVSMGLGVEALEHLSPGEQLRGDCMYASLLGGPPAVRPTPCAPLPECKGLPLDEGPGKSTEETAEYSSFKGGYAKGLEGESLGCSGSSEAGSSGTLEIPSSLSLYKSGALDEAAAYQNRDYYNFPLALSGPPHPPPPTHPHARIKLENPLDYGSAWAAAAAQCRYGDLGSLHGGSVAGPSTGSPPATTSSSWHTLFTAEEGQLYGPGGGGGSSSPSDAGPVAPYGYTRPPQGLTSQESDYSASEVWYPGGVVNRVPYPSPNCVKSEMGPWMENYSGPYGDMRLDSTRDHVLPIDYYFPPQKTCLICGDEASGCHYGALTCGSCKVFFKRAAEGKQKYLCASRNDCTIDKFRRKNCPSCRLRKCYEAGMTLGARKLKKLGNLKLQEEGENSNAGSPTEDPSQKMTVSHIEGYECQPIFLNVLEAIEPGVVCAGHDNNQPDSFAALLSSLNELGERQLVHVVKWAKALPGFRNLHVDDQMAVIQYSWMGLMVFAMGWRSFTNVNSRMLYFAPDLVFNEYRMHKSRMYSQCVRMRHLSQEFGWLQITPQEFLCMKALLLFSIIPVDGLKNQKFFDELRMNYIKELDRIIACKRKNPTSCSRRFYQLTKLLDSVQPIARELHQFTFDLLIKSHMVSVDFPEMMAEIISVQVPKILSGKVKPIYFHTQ
Description: (§1) The androgen receptor (AR) agonistic and antagonistic activity of the compositions of the invention in the L929 cells which express the AR but not the PR was evaluated as described in Zhang et al., Steroids, 65(10–11): 637–643 (October–November 2000).
(§2) Cells were plated in 96-well plates at 25,000 cells/well in DMEM (Bio Whittaker) with 10% (v/v) fetal bovine serum (FBS). The next day, cells were infected with the adenovirus PRE-tk-luciferase reporter construct (2×10^9 pfu/ml particles) and kept in DMEM containing 10% charcoal stripped FBS for an additional 24 hours. […] To test the anti-androgenic activity, cells were co-treated with 3 nM DHT. Luciferase activity was measured 24 hours following the treatment.

[2] = biological target: T1, androgen receptor (AR); assay: AR agonistic activity, PRE-tk-luciferase reporter in L929 cells; format: cell-based; details: at the maximum concentration tested (i.e., 10 nM)
Description: as §1, §2

IC50 ([1]; L929 cells expressing AR but not PR, PRE-tk-luciferase reporter, luciferase measured 24 hours after treatment): 109 nM
antagonistic activity ([1]; L929 cells, nine point dose response): significant antagonistic activity
agonistic activity [2]: only marginal agonistic activity
Compound: Cn1c(C#N)ccc1-c1ccc2c(c1)C(C)(C)OC(=S)N2 [5-(4,4-dimethyl-2-thioxo-1,4-dihydro-2H-3,1-benzoxazin-6-yl)-1-methyl-1H-pyrrole-2-carbonitrile]
